The text below walks through data of US6172066A, “Dihydropyrimidines and uses thereof” (Synaptic Pharmaceutical Corporation, priority 1997, dated 2001).

Counter-ions that a name gives are not always drawn.

In assay [1] the target is T1, α1D Human Adrenergic Receptor (Homo sapiens, UniProt P25100).
T1 construct: The entire coding region of α1D (1719 bp); expressed in transfected cells
T1 sequence (P25100 1-572): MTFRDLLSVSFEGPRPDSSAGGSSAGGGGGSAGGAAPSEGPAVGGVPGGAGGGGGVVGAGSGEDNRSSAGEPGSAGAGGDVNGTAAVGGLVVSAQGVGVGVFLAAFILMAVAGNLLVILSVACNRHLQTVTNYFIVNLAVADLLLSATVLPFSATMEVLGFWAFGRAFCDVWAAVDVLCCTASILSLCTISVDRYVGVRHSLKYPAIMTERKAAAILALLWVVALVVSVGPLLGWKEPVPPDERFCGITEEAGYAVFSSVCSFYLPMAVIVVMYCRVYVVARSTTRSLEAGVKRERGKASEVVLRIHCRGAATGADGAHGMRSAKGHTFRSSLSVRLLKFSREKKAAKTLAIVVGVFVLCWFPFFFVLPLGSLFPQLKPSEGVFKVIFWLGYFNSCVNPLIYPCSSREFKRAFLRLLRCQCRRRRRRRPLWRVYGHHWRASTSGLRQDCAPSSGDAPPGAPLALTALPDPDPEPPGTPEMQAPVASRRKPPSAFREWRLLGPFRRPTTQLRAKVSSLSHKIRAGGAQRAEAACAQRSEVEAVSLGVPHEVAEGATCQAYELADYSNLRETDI
In words: Radioligand binding, [3H]prazosin displacement, cloned human α1D receptor (LM(tk-) cell membranes). To be noted: [3H]prazosin 0.5 nM, 37° C., 20 min; for Ki: read-out: hα1D pKi (converted). Here is the method: (§1) The activity of compounds at the different human receptors was determined in vitro using cultured cell lines that selectively express the receptor of interest. These cell lines were prepared by transfecting the cloned cDNA or cloned genomic DNA or constructs containing both genomic DNA and cDNA encoding the human α-adrenergic receptors as follows:
The entire coding region of α1D (1719 bp), including 150 base pairs of 5' untranslated sequence (5' UT) and 300 bp of 3' untranslated sequence (3' UT), was cloned into the BamHI and ClaI sites of the polylinker-modified eukaryotic expression vector pCEXV-3, called EXJ.HR. The construct involved the ligation of partial overlapping human lymphocyte genomic and hippocampal cDNA clones: 5' sequence were contained on a 1.2 kb SmaI-XhoI genomic fragment (the vector-derived BamHI site was used for subcloning instead of the internal insert-derived SmaI site) and 3' sequences were contained on an 1.3 kb XhoI-ClaI cDNA fragment (the ClaI site was from the vector polylinker). Stable cell lines were obtained by cotransfection with the plasmid α1A/EXJ (expression vector containing the α1A receptor gene (old nomenclature)) and the plasmid pGCcos3neo (plasmid containing the aminoglycoside transferase gene) into LM(tk-) cells using calcium phosphate technique. The cells were grown, in a controlled environment (37° C., 5% CO2), as monolayers in Dulbecco's modified Eagle's Medium (GIBCO, Grand Island, N.Y.) containing 25 mM glucose and supplemented with 10% bovine calf serum, 100 units/ml penicillin g, and 100 μg/ml streptomycin sulfate. Stable clones were then selected for resistance to the antibiotic G-418 (1 mg/ml), and membranes were harvested and assayed for their ability to bind [^3 H]prazosin as described below (see "Radioligand Binding assays").
The cell line expressing the human α1D receptor used herein was designated L-α1A (old nomenclature) and was deposited with the American Type Culture Collection, 12301 Parklawn Drive, Rockville, Md. 20852, U.S.A. under the provisions of the Budapest Treaty for the International Recognition of the Deposit of Microorganisms for the Purposes of Patent Procedure. The cell line expressing the human α1D receptor, was accorded ATCC Accession No. CRL 11138, and was deposited on Sep. 25, 1992.
(§2) Transfected cells from culture flasks were scraped into 5 ml of 5 mM Tris-HCl, 5 mM EDTA, pH 7.5, and lysed by sonication. The cell lysates were centrifuged at 1000 rpm for 5 min at 4° C., and the supernatant was centrifuged at 30,000×g for 20 min at 4° C. The pellet was suspended in 50 mM Tris-HCl, 1 mM MgCl2, and 0.1% ascorbic acid at pH 7.5. Binding of the α1 antagonist [^3 H]prazosin (0.5 nM, specific activity 76.2 Ci/mmol) to membrane preparations of LM(tk-) cells was done in a final volume of 0.25 ml and incubated at 37° C. for 20 min. Nonspecific binding was determined in the presence of 10 μM phentolamine. The reaction was stopped by filtration through GF/B filters using a cell harvester. Inhibition experiments, routinely consisting of 7 concentrations of the tested compounds, were analyzed using a non-linear regression curve-fitting computer program to obtain Ki values.

Assay [2] concerns the target T2, α1B Human Adrenergic Receptor (Homo sapiens, UniProt P35368).
T2 construct: The entire coding region of a1B (1563 bp); expressed in transfected cells
T2 sequence (P35368 1-520): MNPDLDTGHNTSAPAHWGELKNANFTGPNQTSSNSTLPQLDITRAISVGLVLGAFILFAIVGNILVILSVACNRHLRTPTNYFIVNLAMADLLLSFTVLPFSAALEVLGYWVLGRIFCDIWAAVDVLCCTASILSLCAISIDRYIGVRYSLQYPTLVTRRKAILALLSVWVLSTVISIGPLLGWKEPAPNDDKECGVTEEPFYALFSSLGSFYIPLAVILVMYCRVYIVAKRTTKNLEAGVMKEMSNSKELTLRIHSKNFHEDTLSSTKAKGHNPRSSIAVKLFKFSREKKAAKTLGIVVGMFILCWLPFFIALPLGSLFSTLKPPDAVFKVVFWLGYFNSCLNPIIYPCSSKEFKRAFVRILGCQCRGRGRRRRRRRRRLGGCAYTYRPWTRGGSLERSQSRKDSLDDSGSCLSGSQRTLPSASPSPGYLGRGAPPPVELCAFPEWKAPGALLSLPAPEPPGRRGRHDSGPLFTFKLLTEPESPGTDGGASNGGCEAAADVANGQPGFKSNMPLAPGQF
The experiment in a line: Radioligand binding, [3H]prazosin displacement, cloned human α1B receptor (LM(tk-) cell membranes). To be noted: [3H]prazosin 0.5 nM, 37° C., 20 min; for Ki: read-out: hα1B pKi (converted). On the procedure: as §1
The entire coding region of a1B (1563 bp), including 200 base pairs and 5' untranslated sequence (5' UT) and 600 bp of 3' untranslated sequence (3' UT), was cloned into the EcoRI site of pCEXV-3 eukaryotic expression vector. The construct involved ligating the full-length containing EcoRI brainstem cDNA fragment from λ ZapII into the expression vector. Stable cell lines were selected as described above. The cell line used herein was designated L-α1B and was deposited with the American Type Culture Collection, 12301 Parklawn Drive, Rockville, Md. 20852, U.S.A. under the provisions of the Budapest Treaty for the International Recognition of the Deposit of Microorganisms for the Purposes of Patent Procedure. The cell line L-α1B was accorded ATCC Accession No. CRL 11139, on Sep. 25, 1992.
as §2

As for `CCC1=C(C(N)=O)C(c2ccc(F)cc2F)N(C(=O)NCCN[C@H]2CC[C@](C#N)(c3ccccc3)CC2)C(=O)N1` (single isomer, unassigned; (+)) [Example 3, (+)-cis-5-Carboxamido-6-(2,4-difluorophenyl)-1-{N-[2-(4-cyano-4-phenyl-cyclohexylamino)ethyl]}carboxamido-4-ethyl-2-oxo-1,2,3,6-tetrahydropyrimidine hydrochloride], the Ki in assay [1] was 240 nM; in assay [2] it was 100 nM.

Turning to `COCC1=C(C(=O)OC)C(c2ccc(F)c(F)c2)N(C(=O)NCCN[C@H]2CC[C@](C#N)(c3ccccc3)CC2)C(=O)N1` (single isomer, unassigned; (+)) [Example 4, (+)-cis-6-(3,4-Difluorophenyl)-1-{N-[2-(4-cyano-4-phenyl-cyclohexylamino)ethyl]}carboxamido-5-methoxycarbonyl-4-methoxymethyl-2-oxo-1,2,3,6-tetrahydropyrimidine hydrochloride], the values for the Ki in assay [1] and in assay [2] were 100 nM and 18.6 nM, respectively.

On to `COCC1=C(C(=O)OC)C(c2ccc(F)c(F)c2)N(C(=O)NCCN[C@H]2CC[C@@](C#N)(c3ccccc3)CC2)C(=O)N1` (single isomer, unassigned; (+)) [Example 5, (+)-trans-6-(3,4-Difluorophenyl)-1-{N-[2-(4-cyano-4-phenyl-cyclohexylamino)ethyl]}carboxamido-5-methoxycarbonyl-4-methoxymethyl-2-oxo-1,2,3,6-tetrahydropyrimidine hydrochloride], for which the Ki in assay [1] was 123 nM; in assay [2] it was 26.9 nM.

As to `COCC1=C(C(=O)OC)C(c2ccc(F)c(F)c2)N(C(=O)NCCN[C@H]2CC[C@H](c3ccccn3)CC2)C(=O)N1` (single isomer, unassigned; (+)) [Example 7, (+)-trans-6-(3,4-Difluorophenyl)-1-{N-[2-(4-(2-pyridyl)-cyclohexylamino)ethyl]}carboxamido-5-methoxycarbonyl-4-methoxymethyl-2-oxo-1,2,3,6-tetrahydropyrimidine hydrochloride], the results for the Ki in assay [1] and in assay [2] were 3890 nM and 1120 nM, respectively.

Regarding `COCC1=C(C(=O)OC)C(c2ccc(F)c(F)c2)N(C(=O)NCCN[C@H]2CC[C@](C(=O)OC)(c3ccccc3)CC2)C(=O)N1` (single isomer, unassigned; (+)) [Example 11, (+)-cis-6-(3,4-Difluorophenyl)-1-{N-[2-(4-methoxycarbonyl-4-phenyl-cyclohexylamino)ethyl]}carboxamido-5-methoxycarbonyl-4-methoxymethyl-2-oxo-1,2,3,6-tetrahydropyrimidine hydrochloride], the Ki in assay [1] was 126 nM; in assay [2], 27.5 nM.

Take `COC(=O)C1=C(C)NC(=O)N(C(=O)NCCN[C@H]2CC[C@](C#N)(c3ccccc3F)CC2)C1c1ccc(F)c(F)c1` (single isomer, unassigned; (+)) [Example 13, (+)-cis-6-(3,4-Difluorophenyl)-1-{N-[2-(4-cyano-4-(2-fluorophenyl)-cyclohexylamino)ethyl]}carboxamido-5-methoxycarbonyl-4-methyl-2-oxo-1,2,3,6-tetrahydropyrimidine hydrochloride]: the Ki in assay [1] is 51.3 nM; in assay [2], 13.5 nM.

As for `COCC1=C(C(=O)OC)C(c2ccc(F)c(F)c2)N(C(=O)NCCN[C@H]2CC[C@](C#N)(c3ccccn3)CC2)C(=O)N1` (single isomer, unassigned; (+)) [Example 14, (+)-cis-6-(3,4-Difluorophenyl)-1-{N-[2-(4-cyano-4-(2-pyridyl)-cyclohexylamino)ethyl]}carboxamido-5-methoxycarbonyl-4-methoxymethyl-2-oxo-1,2,3,6-tetrahydropyrimidine hydrochloride], the Ki in assay [1] was 1100 nM; in assay [2], 282 nM.

Turning to “cis-6-(3,4,5-Trifluorophenyl)-1-{N-[2-(4-cyano-4-phenyl-cyclohexylamino)ethyl]}-carboxamido-5-acetyl-4-methoxymethyl-2-oxo-1,2,3,6-tetrahydropyrimidine hydrochloride [Example 2]”, the “hα1D pKi” value in assay [1] is on record as 7.05. Further, the “hα1B pKi” value in assay [2] is recorded as 7.76.
